Assays:
EGFR T790M = EGFR T790M (Homo sapiens, UniProt P00533, T790M); test: EGFR Enzyme Assay; format: biochemical; settings: 1 uM compound, read-out: T790M (% inh @ 1 uM)
Protocol: The following TABLE III lists compounds representative of the invention and their activity in EGFR assays. In these assays, the following grading was used: A: >50% @1 μM; B: <50% @ 1 μM.

BTK = BTK (Homo sapiens, UniProt Q06187); test: BTK Enzyme Assay; format: biochemical; settings: 1 uM compound; read-out: BTK (% inh @ 1 uM)
Chain of BTK (Q06187 whole entry): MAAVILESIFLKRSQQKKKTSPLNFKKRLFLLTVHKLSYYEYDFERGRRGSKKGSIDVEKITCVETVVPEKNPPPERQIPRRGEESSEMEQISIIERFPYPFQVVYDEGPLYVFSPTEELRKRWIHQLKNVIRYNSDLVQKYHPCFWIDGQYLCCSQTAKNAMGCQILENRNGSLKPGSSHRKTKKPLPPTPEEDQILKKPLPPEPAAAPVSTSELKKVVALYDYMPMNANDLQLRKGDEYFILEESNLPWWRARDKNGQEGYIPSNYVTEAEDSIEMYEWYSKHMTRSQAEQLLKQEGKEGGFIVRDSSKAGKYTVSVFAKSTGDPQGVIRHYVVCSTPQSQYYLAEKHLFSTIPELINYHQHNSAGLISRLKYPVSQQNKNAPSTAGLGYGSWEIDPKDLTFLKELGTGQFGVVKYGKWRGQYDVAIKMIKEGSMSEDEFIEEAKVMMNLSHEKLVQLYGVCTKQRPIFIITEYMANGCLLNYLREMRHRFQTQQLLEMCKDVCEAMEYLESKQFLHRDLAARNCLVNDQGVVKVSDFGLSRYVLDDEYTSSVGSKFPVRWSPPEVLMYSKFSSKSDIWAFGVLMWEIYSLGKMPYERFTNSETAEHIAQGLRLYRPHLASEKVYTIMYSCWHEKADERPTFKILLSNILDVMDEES
Protocol: The following TABLE II lists compounds representative of the invention and their activity in BTK assays. In these assays, the following grading was used: A: >30% inhibition @1 μM; B: <30% inhibition @1 μM.

Chain of EGFR T790M (P00533 25-1210 T790M): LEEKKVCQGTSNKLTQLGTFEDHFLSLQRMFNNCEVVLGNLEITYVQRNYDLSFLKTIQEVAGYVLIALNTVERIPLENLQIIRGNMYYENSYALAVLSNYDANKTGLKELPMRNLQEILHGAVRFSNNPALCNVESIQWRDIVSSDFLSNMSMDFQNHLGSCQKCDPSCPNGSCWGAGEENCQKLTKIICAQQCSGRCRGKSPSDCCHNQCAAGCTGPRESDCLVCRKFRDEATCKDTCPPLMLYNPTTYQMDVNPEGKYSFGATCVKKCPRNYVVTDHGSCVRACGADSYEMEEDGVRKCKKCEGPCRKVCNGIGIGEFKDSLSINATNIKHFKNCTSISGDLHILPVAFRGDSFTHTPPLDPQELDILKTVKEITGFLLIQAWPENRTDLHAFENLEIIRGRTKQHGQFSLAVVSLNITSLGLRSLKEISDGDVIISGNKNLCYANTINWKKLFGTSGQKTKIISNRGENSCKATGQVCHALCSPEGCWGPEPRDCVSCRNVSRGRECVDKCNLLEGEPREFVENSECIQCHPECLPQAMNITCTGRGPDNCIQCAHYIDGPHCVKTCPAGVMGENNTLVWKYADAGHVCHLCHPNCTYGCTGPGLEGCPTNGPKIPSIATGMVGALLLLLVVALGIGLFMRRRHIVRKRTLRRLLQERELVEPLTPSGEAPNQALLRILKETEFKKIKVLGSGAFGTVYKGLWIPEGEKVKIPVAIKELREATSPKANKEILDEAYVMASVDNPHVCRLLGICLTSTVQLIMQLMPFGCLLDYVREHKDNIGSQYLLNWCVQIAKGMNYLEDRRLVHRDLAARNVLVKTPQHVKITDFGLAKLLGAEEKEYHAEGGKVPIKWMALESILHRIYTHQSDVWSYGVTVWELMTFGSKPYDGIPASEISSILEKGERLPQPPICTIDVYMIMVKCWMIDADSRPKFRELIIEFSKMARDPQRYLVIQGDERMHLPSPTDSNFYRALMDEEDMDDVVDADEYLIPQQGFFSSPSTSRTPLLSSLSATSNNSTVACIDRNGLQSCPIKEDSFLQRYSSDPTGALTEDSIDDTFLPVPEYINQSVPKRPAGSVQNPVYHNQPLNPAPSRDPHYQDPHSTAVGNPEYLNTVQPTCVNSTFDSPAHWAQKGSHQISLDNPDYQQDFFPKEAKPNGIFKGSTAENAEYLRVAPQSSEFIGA

SMILES	inhibition at 1 µM (EGFR T790M) [%]	inhibition at 1 µM (BTK) [%]
C=CC(=O)Nc1cc(Nc2nc(-c3ccccc3NC)c3ccsc3n2)c(OC)cc1N1CCN(C)CC1 [Compound 43, N-[4-methoxy-5-[[4-[2-(methylamino)phenyl]thieno[2,3-d]pyrimidin-2-yl]amino]-2-(4-methylpiperazin-1-yl)phenyl]prop-2-enamide]	< 50	< 30
C=CC(=O)Nc1cc(Nc2nc(-c3ccccc3N(C)C)c3ccsc3n2)c(OC)cc1N1CCN(C)CC1 [Compound 50, N-[5-[[4-[2-(dimethylamino)phenyl]thieno[2,3-d]pyrimidin-2-yl]amino]-4-methoxy-2-(4-methylpiperazin-1-yl)phenyl]prop-2-enamide]	< 50	> 30
C=CC(=O)Nc1cc(N(C)c2nc(-c3cn(C)c4ccccc34)c3sccc3n2)c(OC)cc1N1CCOCC1 [Compound 52, N-[4-methoxy-5-[methyl-[4-(1-methylindol-3-yl)thieno[3,2-d]pyrimidin-2-yl]amino]-2-morpholino-phenyl]prop-2-enamide]	< 50	< 30
